# Where two headings read alike, the source gives them in different places.
# Tests used:
# cancer patients [1] = assay: phase II programme, 24 hour every 3 weeks schedule; format: in vivo, human
# Method: (§1) Two schedules (24 hour every 3 weeks and 3 hour every 3 weeks) reached the phase II programme. The phase II programme confirmed the activity against soft tissue sarcoma and ovarian cancer. However, the recommended starting dose for the 3 hour schedule had to be reduced because of serious toxicity. The recommended dose for the 24 hour schedule was 1500 μg /m^2 and the recommended dose for the 3 hour schedule is at present 1300 μg/m^2.
# The 3 hour every three weeks schedule has the signifcant advantage of being more confortable for the patient because it reduces the time being spent at the hospital for infusion and monitoring, in particular avoiding overnight stay.
# cancer patients [2] = assay: phase II programme, 3 hour every 3 weeks schedule; format: in vivo, human
# Method: as §1
# Serious increases of transaminases (grade 3-4) were more frequent with the 3 hour schedule than with the 24 hour schedule. […] This toxicity has improved with the amendment that reduces the starting dose to 1300 (grade 3 and 4 ALT in 38% and 8.5% of patients), although it would be desirable to reduce it further. Cholestasis is less severe and less frequent observing grade 1, 2 and 3 alkaline phosphatase in 50.4%, 6.5% and 1.7% (leading to an overall 58.6% that compares similarly with 57.7% over 24 hours) of patients. […] An infrequent but important toxicity was the renal toxicity, represented by creatinine abnormalities, that is also higher than in the 24 hour schedule. […]
# cancer patients [3] = conditions: cited from earlier work
# cancer patients [4] = conditions: cited from earlier work; remark: listed apart in the source
# cynomolgus monkeys = conditions: cited from earlier work
# human progenitor cells = conditions: cited from earlier work
# [5] = 24 hour infusion, worst grade per patient
# [6] = 24 h schedule every three weeks
# [7] = Per patient (24 h), number (percent)
# [8] = 3 hour infusion, worst grade per patient
# [9] = Per patient (3 h), number (percent)
# [10] = starting dose reduced to 1300, % of patients
substance,measurement,setting,value
ecteinascidin 743 [ET-743],"Alk Phosph, NCI-CTC Grade 1",cancer patients [1]; [5],149 (46.7) Number of patients (%)
same,"Alk Phosph, NCI-CTC Grade 2",cancer patients [1]; [5],29 (9.1) Number of patients (%)
same,"Alk Phosph, NCI-CTC Grade 3",cancer patients [1]; [5],6 (1.9) Number of patients (%)
same,"Bilirubin, NCI-CTC Grade 1",cancer patients [1]; [5],49 (15.3) Number of patients (%)
same,"Bilirubin, NCI-CTC Grade 2",cancer patients [1]; [5],23 (6.9) Number of patients (%)
same,"Bilirubin, NCI-CTC Grade 3",cancer patients [1]; [5],4 (1.3) Number of patients (%)
same,"Gamma GT, NCI-CTC Grade 1",cancer patients [1]; [5],25 (22.9) Number of patients (%)
same,"Gamma GT, NCI-CTC Grade 2",cancer patients [1]; [5],29 (26.6) Number of patients (%)
same,"Gamma GT, NCI-CTC Grade 3",cancer patients [1]; [5],32 (29.4) Number of patients (%)
same,"Gamma GT, NCI-CTC Grade 4",cancer patients [1]; [5],2 (1.8) Number of patients (%)
same,"Hemoglobin, NCI-CTC Grade 0-1",cancer patients [1]; [5],165 (51.6) Number of patients (%)
same,"Hemoglobin, NCI-CTC Grade 2",cancer patients [1]; [5],111 (34.7) Number of patients (%)
same,"Hemoglobin, NCI-CTC Grade 3",cancer patients [1]; [5],33 (10.3) Number of patients (%)
same,"Hemoglobin, NCI-CTC Grade 4",cancer patients [1]; [5],11 (3.4) Number of patients (%)
same,"Neutrophils, NCI-CTC Grade 0-1",cancer patients [1]; [5],103 (32.3) Number of patients (%)
same,"Neutrophils, NCI-CTC Grade 2",cancer patients [1]; [5],54 (16.9) Number of patients (%)
same,"Neutrophils, NCI-CTC Grade 3",cancer patients [1]; [5],92 (28.8) Number of patients (%)
same,"Neutrophils, NCI-CTC Grade 4",cancer patients [1]; [5],70 (21.9) Number of patients (%)
same,"Platelets, NCI-CTC Grade 0-1",cancer patients [1]; [5],260 (81.5) Number of patients (%)
same,"Platelets, NCI-CTC Grade 2",cancer patients [1]; [5],17 (5.3) Number of patients (%)
same,"Platelets, NCI-CTC Grade 3",cancer patients [1]; [5],35 (11.0) Number of patients (%)
same,"Platelets, NCI-CTC Grade 4",cancer patients [1]; [5],7 (2.2) Number of patients (%)
same,"SGOT/AST, NCI-CTC Grade 1",cancer patients [1]; [5],74 (23.2) Number of patients (%)
same,"SGOT/AST, NCI-CTC Grade 2",cancer patients [1]; [5],88 (27.6) Number of patients (%)
same,"SGOT/AST, NCI-CTC Grade 3",cancer patients [1]; [5],120 (37.6) Number of patients (%)
same,"SGOT/AST, NCI-CTC Grade 4",cancer patients [1]; [5],16 (5.0) Number of patients (%)
same,"SGPT/ALT, NCI-CTC Grade 1",cancer patients [1]; [5],62 (19.4) Number of patients (%)
same,"SGPT/ALT, NCI-CTC Grade 2",cancer patients [1]; [5],83 (25.9) Number of patients (%)
same,"SGPT/ALT, NCI-CTC Grade 3",cancer patients [1]; [5],127 (39.7) Number of patients (%)
same,"SGPT/ALT, NCI-CTC Grade 4",cancer patients [1]; [5],30 (9.4) Number of patients (%)
same,recommended dose,"cancer patients [1]; 24 hour schedule, phase II",1500 μg /m^2
same,Grade 3-4 ALT,cancer patients [1]; [6],49.1%
same,Grade 3-4 Bilirubin,cancer patients [1]; [6],1.3%
same,Grade 3-4 Creatinine,cancer patients [1]; [6],0.7%
same,Grade 3-4 Creatinine Kinase,cancer patients [1]; [6],2.2%
same,Grade 3-4 Hemoglobin,cancer patients [1]; [6],13.7%
same,Grade 3-4 Neutrophils,cancer patients [1]; [6],50.7%
same,Grade 3-4 Platelets,cancer patients [1]; [6],13.2%
same,"Creatinine abnormalities, NCI-CTC Grade 1",cancer patients [1]; [7],76 (23.9)
same,"Creatinine abnormalities, NCI-CTC Grade 2",cancer patients [1]; [7],19 (6.0)
same,"Creatinine abnormalities, NCI-CTC Grade 3",cancer patients [1]; [7],3 (0.9)
same,"Creatinine abnormalities, NCI-CTC Grade 4",cancer patients [1]; [7],2 (0.6)
same,Grades 1-3 of bilirubin,"cancer patients [1]; over 24 hours, % of patients",23.8%
same,alkaline phosphatase overall,"cancer patients [1]; over 24 hours, % of patients",57.7%
same,"Alk Phosph, NCI-CTC Grade 1",cancer patients [2]; [8],115 (50.4) Number of patients (%)
same,"Alk Phosph, NCI-CTC Grade 2",cancer patients [2]; [8],15 (6.5) Number of patients (%)
same,"Alk Phosph, NCI-CTC Grade 3",cancer patients [2]; [8],4 (1.7) Number of patients (%)
same,"Alk Phosph, NCI-CTC Grade 4",cancer patients [2]; [8],2 (0.8) Number of patients (%)
same,"Bilirubin, NCI-CTC Grade 1",cancer patients [2]; [8],59 (25.8) Number of patients (%)
same,"Bilirubin, NCI-CTC Grade 2",cancer patients [2]; [8],38 (16.6) Number of patients (%)
same,"Bilirubin, NCI-CTC Grade 3",cancer patients [2]; [8],6 (2.6) Number of patients (%)
same,"Bilirubin, NCI-CTC Grade 4",cancer patients [2]; [8],0 ^ Number of patients (%)
same,"Hemoglobin, NCI-CTC Grade 0-1",cancer patients [2]; [8],132 (55) Number of patients (%)
same,"Hemoglobin, NCI-CTC Grade 2",cancer patients [2]; [8],80 (33.4) Number of patients (%)
same,"Hemoglobin, NCI-CTC Grade 3",cancer patients [2]; [8],23 (9.6) Number of patients (%)
same,"Hemoglobin, NCI-CTC Grade 4",cancer patients [2]; [8],4 (1.6) Number of patients (%)
same,"Neutrophils, NCI-CTC Grade 0-1",cancer patients [2]; [8],59 (24.5) Number of patients (%)
same,"Neutrophils, NCI-CTC Grade 2",cancer patients [2]; [8],42 (17.4) Number of patients (%)
same,"Neutrophils, NCI-CTC Grade 3",cancer patients [2]; [8],57 (23.6) Number of patients (%)
same,"Neutrophils, NCI-CTC Grade 4",cancer patients [2]; [8],85 (35.2) Number of patients (%)
same,"Platelets, NCI-CTC Grade 0-1",cancer patients [2]; [8],170 (69.1) Number of patients (%)
same,"Platelets, NCI-CTC Grade 2",cancer patients [2]; [8],26 (10.6) Number of patients (%)
same,"Platelets, NCI-CTC Grade 3",cancer patients [2]; [8],31 (12.6) Number of patients (%)
same,"Platelets, NCI-CTC Grade 4",cancer patients [2]; [8],14 (5.6) Number of patients (%)
same,"SGOT/AST, NCI-CTC Grade 1",cancer patients [2]; [8],17 (7.2) Number of patients (%)
same,"SGOT/AST, NCI-CTC Grade 2",cancer patients [2]; [8],29 (12.3) Number of patients (%)
same,"SGOT/AST, NCI-CTC Grade 3",cancer patients [2]; [8],117 (49.7) Number of patients (%)
same,"SGOT/AST, NCI-CTC Grade 4",cancer patients [2]; [8],58 (24.6) Number of patients (%)
same,"SGPT/ALT, NCI-CTC Grade 1",cancer patients [2]; [8],13 (5.5) Number of patients (%)
same,"SGPT/ALT, NCI-CTC Grade 2",cancer patients [2]; [8],19 (8.1) Number of patients (%)
same,"SGPT/ALT, NCI-CTC Grade 3",cancer patients [2]; [8],107 (45.7) Number of patients (%)
same,"SGPT/ALT, NCI-CTC Grade 4",cancer patients [2]; [8],87 (37.1) Number of patients (%)
same,"Increased transaminases (grade 3-4), cycles","cancer patients [2]; 3 hour schedule, % of cycles",58.3%
same,Grades 1-3 of bilirubin,"cancer patients [2]; 3 hour schedule, % of patients",45%
same,"Increased transaminases (grade 3-4), patients","cancer patients [2]; 3 hour schedule, % of patients",83.4%
same,alkaline phosphatase overall,"cancer patients [2]; 3 hour schedule, % of patients",58.6%
same,grade 1 alkaline phosphatase,"cancer patients [2]; 3 hour schedule, % of patients",50.4%
same,grade 2 alkaline phosphatase,"cancer patients [2]; 3 hour schedule, % of patients",6.5%
same,grade 3 alkaline phosphatase,"cancer patients [2]; 3 hour schedule, % of patients",1.7%
same,recommended dose,"cancer patients [2]; 3 hour schedule, at present (reduced)",1300 μg/m^2
same,Grade 3-4 ALT,cancer patients [2]; 3 h schedule every three weeks,82.8%
same,Grade 3-4 Bilirubin,cancer patients [2]; 3 h schedule every three weeks,2.6%
same,Grade 3-4 Creatinine,cancer patients [2]; 3 h schedule every three weeks,2.3%
same,Grade 3-4 Creatinine Kinase,cancer patients [2]; 3 h schedule every three weeks,1.5%
same,Grade 3-4 Hemoglobin,cancer patients [2]; 3 h schedule every three weeks,11.3%
same,Grade 3-4 Neutrophils,cancer patients [2]; 3 h schedule every three weeks,58.3%
same,Grade 3-4 Platelets,cancer patients [2]; 3 h schedule every three weeks,18.7%
same,"Creatinine abnormalities, NCI-CTC Grade 1",cancer patients [2]; [9],44 (20.1)
same,"Creatinine abnormalities, NCI-CTC Grade 2",cancer patients [2]; [9],10 (4.6)
same,"Creatinine abnormalities, NCI-CTC Grade 3",cancer patients [2]; [9],5 (2.3)
same,"Creatinine abnormalities, NCI-CTC Grade 4",cancer patients [2]; [9],0 ^
same,grade 3 ALT,cancer patients [2]; [10],38%
same,grade 4 ALT,cancer patients [2]; [10],8.5%
same,DLT (dose limiting toxicity),cancer patients [3]; 24hr infusion every 3 weeks,hematotoxicity
same,MTD (maximum tolerated dose),cancer patients [3]; 24hr infusion every 3 weeks,1800 μg/m^2
same,RD (recommended dose),cancer patients [3]; 24hr infusion every 3 weeks,1500 μg/m^2
same,Grade 2 or greater hyperbilirubinemia,cancer patients [3]; % of treatment courses at the RD,30%
same,"Grade 3 or 4 transaminases, cycles","cancer patients [3]; at the RD, % of cycles",38%
same,"Grade 3 or 4 transaminases, patients","cancer patients [3]; at the RD, % of patients",68%
same,MTD,cancer patients [4]; 72 hr infusion every 3 weeks,1200 μg/M^2
same,RD,cancer patients [4]; 72 hr infusion every 3 weeks,1050 μg/M^2
same,reversible grade 4 transaminases elevation,cancer patients [4]; at 1200 μg/M^2 (MTD),2 out of 9
same,grade 3 hypertransaminasemia,"cancer patients [4]; at the RD (1050 μg/M^2), % of patients",50%
same,grade 4 hypertransaminasemia,cancer patients [4]; at the RD (1050 μg/M^2),there was not any grade 4 hypertransaminasemia
same,toxicity,cynomolgus monkeys; fractionated dosing,only minor toxicity
same,toxicity,cynomolgus monkeys; single doses,"hepatic and hematological toxicity, emesis and diarrhoea"
same,sensitivity of progenitor cells,human progenitor cells,equal sensitivity of erythropoid and myeloid cells

# — US20050004018A1, “Use of antitumoral compound in cancer therapy” (priority 2001, published 2005)
